Laboratory results published in ChEMBL document CHEMBL2385069, “Thiourea derivatives incorporating a hippuric acid moiety: synthesis and evaluation of antibacterial and antifungal activities” (2013).
Values after ≈ are worked out from the molar mass of the structure shown.

Tests used:
Assay type in all cases: functional
Klebsiella pneumoniae [1] = assay: Antibacterial activity against Klebsiella pneumoniae ATCC 13883 assessed as diameter of inhibition zone at 1 mg/ml after 24 hrs by agar well diffusion method; conditions: ATCC 13883, 24 h, read-out: DIZ
Pseudomonas aeruginosa [2] = assay: Antibacterial activity against Pseudomonas aeruginosa ATCC 27953 assessed as diameter of inhibition zone at 1 mg/ml after 24 hrs by agar well diffusion method; conditions: ATCC 27953, 24 h, read-out: DIZ
Staphylococcus aureus [3] = assay: Antibacterial activity against Staphylococcus aureus ATCC 29213 assessed as diameter of inhibition zone at 1 mg/ml after 24 hrs by agar well diffusion method; conditions: ATCC 29213, 24 h, read-out: DIZ
Proteus vulgaris [4] = assay: Antibacterial activity against Proteus vulgaris assessed as diameter of inhibition zone at 1 mg/ml after 24 hrs by agar well diffusion method; conditions: read-out: DIZ
Candida albicans [5] = assay: Antifungal activity against Candida albicans NRRLY-477 assessed as diameter of inhibition zone at 1 mg/ml after 24 hrs by agar well diffusion method; conditions: NRRLY-477, 24 h, read-out: DIZ
Priestia megaterium [6] = assay: Antibacterial activity against Bacillus megaterium ATCC 9885 assessed as diameter of inhibition zone at 1 mg/ml after 24 hrs by agar well diffusion method; conditions: ATCC 9885, 24 h, read-out: DIZ
Bacillus subtilis [7] = assay: Antibacterial activity against Bacillus subtilis ATCC 6633 assessed as diameter of inhibition zone at 1 mg/ml after 24 hrs by agar well diffusion method; conditions: ATCC 6633, 24 h, read-out: DIZ
Saccharomyces cerevisiae [8] = assay: Antifungal activity against Saccharomyces cerevisiae assessed as diameter of inhibition zone at 1 mg/ml after 24 hrs by agar well diffusion method; conditions: read-out: DIZ
Escherichia coli [9] = assay: Antibacterial activity against Escherichia coli ATCC 25922 assessed as diameter of inhibition zone at 1 mg/ml after 24 hrs by agar well diffusion method; conditions: ATCC 25922, 24 h, read-out: DIZ
Micrococcus luteus [10] = assay: Antibacterial activity against Sarcina lutea assessed as diameter of inhibition zone at 1 mg/ml after 24 hrs by agar well diffusion method; conditions: read-out: DIZ
Bacillus subtilis [11] = assay: Antibacterial activity against Bacillus subtilis ATCC 6633 after 24 hrs by two fold serial dilution technique; conditions: ATCC 6633, 24 h
Saccharomyces cerevisiae [12] = assay: Antifungal activity against Saccharomyces cerevisiae after 24 hrs by two fold serial dilution technique
Priestia megaterium [13] = assay: Antibacterial activity against Bacillus megaterium ATCC 9885 after 24 hrs by two fold serial dilution technique; conditions: ATCC 9885, 24 h
Candida albicans [14] = assay: Antifungal activity against Candida albicans NRRLY-477 after 24 hrs by two fold serial dilution technique; conditions: NRRLY-477, 24 h
Micrococcus luteus [15] = assay: Antibacterial activity against Sarcina lutea after 24 hrs by two fold serial dilution technique
Proteus vulgaris [16] = assay: Antibacterial activity against Proteus vulgaris after 24 hrs by two fold serial dilution technique
Escherichia coli [17] = assay: Antibacterial activity against Escherichia coli ATCC 25922 after 24 hrs by two fold serial dilution technique; conditions: ATCC 25922, 24 h
Klebsiella pneumoniae [18] = assay: Antibacterial activity against Klebsiella pneumoniae ATCC 13883 after 24 hrs by two fold serial dilution technique; conditions: ATCC 13883, 24 h
Pseudomonas aeruginosa [19] = assay: Antibacterial activity against Pseudomonas aeruginosa ATCC 27953 after 24 hrs by two fold serial dilution technique; conditions: ATCC 27953, 24 h
Staphylococcus aureus [20] = assay: Antibacterial activity against Staphylococcus aureus ATCC 29213 after 24 hrs by two fold serial dilution technique; conditions: ATCC 29213, 24 h

MIC (Bacillus subtilis [11]) | MIC (Saccharomyces cerevisiae [12]) | MIC (Priestia megaterium [13]) | MIC (Candida albicans [14]) | MIC (Micrococcus luteus [15]) | MIC (Proteus vulgaris [16]) | MIC (Escherichia coli [17]) | MIC (Klebsiella pneumoniae [18]) | MIC (Pseudomonas aeruginosa [19]) | MIC (Staphylococcus aureus [20]) | SMILES | zone of inhibition at 1000 µg/mL (Klebsiella pneumoniae [1]) | zone of inhibition at 1000 µg/mL (Pseudomonas aeruginosa [2]) | zone of inhibition at 1000 µg/mL (Staphylococcus aureus [3]) | zone of inhibition at 1000 µg/mL (Proteus vulgaris [4]) | zone of inhibition at 1000 µg/mL (Candida albicans [5]) | zone of inhibition at 1000 µg/mL (Priestia megaterium [6]) | zone of inhibition at 1000 µg/mL (Bacillus subtilis [7]) | zone of inhibition at 1000 µg/mL (Saccharomyces cerevisiae [8]) | zone of inhibition at 1000 µg/mL (Escherichia coli [9]) | zone of inhibition at 1000 µg/mL (Micrococcus luteus [10])
 |  |  |  |  |  |  |  |  |  | O=C(O)CNC(=O)c1ccc(NC(=S)NNC(=O)c2ccncc2)cc1 | 0 mm | 12 mm | 0 mm | 0 mm | 12 mm | 23 mm | 0 mm | 0 mm | 0 mm | 24 mm
 |  |  |  |  |  |  |  |  |  | CCOc1ccc(NC(=O)c2ccccc2NC(=S)Nc2ccc(C(=O)NCC(=O)O)cc2)cc1 | 20 mm | 0 mm | 20 mm | 15 mm | 9 mm | 0 mm | 0 mm | 18 mm | 0 mm | 0 mm
 |  |  |  |  |  |  |  |  |  | Cc1ccc(NC(=S)Nc2ccc(C(=O)NCC(=O)O)cc2)cc1 | 0 mm | 0 mm | 0 mm | 20 mm | 18 mm | 19 mm | 0 mm | 0 mm | 9 mm | 25 mm
 |  |  |  |  |  |  |  |  |  | CCCCCCNC(=S)Nc1ccc(C(=O)NCC(=O)O)cc1 | 12 mm | 0 mm | 0 mm | 0 mm | 0 mm | 23 mm | 9 mm | 9 mm | 11 mm | 24 mm
 |  |  |  |  |  |  |  |  |  | N=C(N)NS(=O)(=O)c1ccc(NC(=S)Nc2ccc(C(=O)NCC(=O)O)cc2)cc1 | 0 mm | 0 mm | 0 mm | 0 mm | 0 mm | 20 mm | 16 mm | 15 mm | 0 mm | 0 mm
 |  |  |  |  |  |  |  |  |  | O=C(O)CNC(=O)c1ccc(NC(=S)Nc2ccccc2)cc1 | 0 mm | 12 mm | 0 mm | 0 mm | 0 mm | 13 mm | 17 mm | 0 mm | 19 mm | 0 mm
 |  |  |  |  |  |  |  |  |  | NS(=O)(=O)c1ccc(NC(=S)Nc2ccc(C(=O)NCC(=O)O)cc2)cc1 | 22 mm | 19 mm | 14 mm | 20 mm | 0 mm | 20 mm | 18 mm | 17 mm | 18 mm | 20 mm
 |  |  |  |  |  |  |  |  |  | O=C(O)CNC(=O)c1ccc(NC(=S)NNC(=O)c2ccccc2)cc1 | 20 mm | 15 mm | 22 mm | 15 mm | 9 mm | 10 mm | 12 mm | 13 mm | 15 mm | 20 mm
 |  |  |  |  |  |  |  |  |  | O=C(O)CNC(=O)c1ccc(NC(=S)Nc2c3ccccc3nc3ccccc23)cc1 | 23 mm | 15 mm | 20 mm | 20 mm | 11 mm | 18 mm | 12 mm | 0 mm | 15 mm | 0 mm
 |  |  |  |  |  |  |  |  |  | Cc1c(NC(=S)Nc2ccc(C(=O)NCC(=O)O)cc2)c(=O)n(-c2ccccc2)n1C | 19 mm | 22 mm | 18 mm | 19 mm | 0 mm | 18 mm | 15 mm | 17 mm | 14 mm | 24 mm
 |  |  |  |  |  |  |  |  |  | O=C(O)CNC(=O)c1ccc(NC(=S)Nc2ccc(S(=O)(=O)Nc3nccs3)cc2)cc1 | 0 mm | 30 mm | 0 mm | 0 mm | 0 mm | 14 mm | 15 mm | 0 mm | 0 mm | 0 mm
50 mg/L (≈ 116 µM) | 50 mg/L (≈ 116 µM) | 12.5 mg/L (≈ 29 µM) | 12.5 mg/L (≈ 29 µM) | 25 mg/L (≈ 58.1 µM) | 25 mg/L (≈ 58.1 µM) | 12.5 mg/L (≈ 29 µM) | 12.5 mg/L (≈ 29 µM) | 12.5 mg/L (≈ 29 µM) | 50 mg/L (≈ 116 µM) | O=C(O)CNC(=O)c1ccc(NC(=S)Nc2ccc(C(=O)NCC(=O)O)cc2)cc1 | 23 mm | 22 mm | 22 mm | 21 mm | 19 mm | 17 mm | 18 mm | 18 mm | 22 mm | 15 mm
 |  |  |  |  |  |  |  |  |  | O=C(O)CNC(=O)c1ccc(NC(=S)Nc2ccc(F)cc2)cc1 | 20 mm | 22 mm | 20 mm | 20 mm | 9 mm | 15 mm | 0 mm | 13 mm | 22 mm | 20 mm
 |  |  |  |  |  |  |  |  |  | CC(=O)NS(=O)(=O)c1ccc(NC(=S)Nc2ccc(C(=O)NCC(=O)O)cc2)cc1 | 0 mm | 12 mm | 15 mm | 0 mm | 0 mm | 20 mm | 18 mm | 0 mm | 0 mm | 0 mm
 |  |  |  |  |  |  |  |  |  | CCCCNC(=S)Nc1ccc(C(=O)NCC(=O)O)cc1 | 20 mm | 22 mm | 22 mm | 21 mm | 10 mm | 16 mm | 13 mm | 18 mm | 22 mm | 9 mm
12.5 mg/L (≈ 21.5 µM) | 25 mg/L (≈ 43.1 µM) | 12.5 mg/L (≈ 21.5 µM) | 12.5 mg/L (≈ 21.5 µM) | 50 mg/L (≈ 86.1 µM) | 25 mg/L (≈ 43.1 µM) | 25 mg/L (≈ 43.1 µM) | 12.5 mg/L (≈ 21.5 µM) | 12.5 mg/L (≈ 21.5 µM) | 50 mg/L (≈ 86.1 µM) | O=C(O)CNC(=O)c1ccc(NC(=S)Nc2ccc(NC(=S)Nc3ccc(C(=O)NCC(=O)O)cc3)cc2)cc1 | 16 mm | 22 mm | 20 mm | 18 mm | 26 mm | 24 mm | 31 mm | 26 mm | 24 mm | 10 mm
 |  |  |  |  |  |  |  |  |  | O=C(O)CNC(=O)c1ccc(NC(=S)Nc2ccccc2C(=O)Nc2cccc(C(F)(F)F)c2)cc1 | 0 mm | 0 mm | 0 mm | 10 mm | 0 mm | 14 mm | 16 mm | 15 mm | 0 mm | 0 mm
 |  |  |  |  |  |  |  |  |  | O=C(O)CNC(=O)c1ccc(NC(=S)Nc2ccc(S(=O)(=O)Nc3ccccn3)cc2)cc1 | 20 mm | 21 mm | 23 mm | 0 mm | 11 mm | 0 mm | 12 mm | 20 mm | 21 mm | 0 mm
